Measurements from patent publication US20260049071A1, “PROTEIN TYROSINE KINASE INHIBITOR AND MEDICAL USE THEREOF” (BEYANG THERAPEUTICS CO., LTD., priority 2022, published 2026).

Tests used:
melanin = assay: Binding capacity of compounds to melanin; type: in vitro ADME; details: Sepia officinalis (cuttlefish), melanin suspension (1 mg/mL); 1 mg/mL melanin suspension in PBS pH 7.4, 2 μM compound, 2 h at 37° C.; read-out: Fu % (percentage of free drug, not bound to melanin)
Description: Pigmented eye tissues contain melanin in intracellular melanosomes. Drugs bind to melanin to varying degrees, ranging from non-binding to extensive binding. Therefore, melanin binding is an important feature that affects drug delivery and biodistribution in the eye. The binding capacity of a compound to the melanin must be considered in the development of ophthalmic drugs.
Melanin was derived from the melanin of cuttlefish (Sepia officinalis) and was commercially available from Sigma Aldrich (St Louis, MO).
First, prepare 1 mg/mL melanin suspension with PBS (pH 7.4). As a washing step for the matrix, centrifuge the suspended particles for 5 min at 3000 rpm. Resuspend the resulting particles in a fresh PBS buffer, heat to 37° C. over continuous shaking and incubate it for 1 h. Accurately pipette 2 μL of the test stock solution (0.1 mM) into 98 μL of melanin suspension (1 mg/mL) to achieve a final incubation concentration of 2 μM. Similarly, accurately pipette 2 μL of the stock solution (0.1 mM) to 98 μL of PBS buffer (containing 0.1% BSA) as a blank control sample. Incubate the samples in a shaker (80-90 rpm) for 2 h at 37° C. Then, centrifuge the samples at room temperature. Pipette 50 μL of the supernatant and add 50 μL of precipitant (containing an internal standard). After protein precipitation of all the above samples, centrifuge the samples to collect the supernatants, dilute the supernatants with water (if necessary) and inject them for analysis. At the same time, measure the positive controls, including the high-binding compounds Sunitinib and chloroquine and the low-binding compound celecoxib. Establish an LC-MS/MS method for determining compound concentrations, and calibrate the peak area ratio of analyte/internal standard (Analyte/AIS) in the measured sample by the dilution factor to take it as an alternative concentration for the sample for data processing. The binding rate (Fh) of a compound in melanin was calculated as: […]
Ctest was the concentration of the compound in the melanin-incubated sample or the peak area ratio of the test compound to the internal standard. Ccontrol was the concentration of the compound in the blank control sample or the peak area ratio of the test compound to the internal standard. Percentage of free drug (Fu %)=100−Fb The binding rates of the compounds of the present invention to melanin are shown in the table below: […]

KDR (VEGFR2) = KDR (VEGFR2) (Homo sapiens (Human), UniProt P35968); assay: Kinase inhibition, Mobility Shift Assay (VEGFR2); type: biochemical
Procedure: (§1) This assay directly monitored the ability of compounds to inhibit kinase phosphorylation by measuring non-phosphorylated and phosphorylated substrates in kinase reactions by using Mobility Shift Assays/IMAP™ analysis.
(§2) Add the kinase and DTT to 1× kinase buffer to form a 2.5× kinase solution; transfer 10 μL of 2.5× kinase solution to a 384-well reaction plate and add 1× kinase buffer to negative control wells. Incubate the plate for 10 min at room temperature; add FAM-labeled peptides, MgCl2, ATP and other reagents to 1× kinase buffer to form a 2.5× substrate solution; transfer 10 μL of the above 2.5× substrate solution to the 384-well reaction plate; incubate the plate at 28° C. for different times, and add 25 μL of stop solution to the 384-well reaction plate to stop the reaction. Read the conversion ratio data on CaliperEZ Reader II. Convert conversion rates into inhibition ratio data.
(§3) “Min” indicates the readout of the control well without the addition of kinase; and “Max” indicates the readout of the control well with the addition of DMSO. Fit IC50 values with XLFit excel add-in version 5.4.0.8.
(§4) X indicates the log value of compound concentration, and Y indicates the inhibition ratio (% inhibition).

FLT1 (VEGFR1) = FLT1 (VEGFR1) (Homo sapiens (Human), UniProt P17948); assay: Kinase inhibition, Mobility Shift Assay (VEGFR1); type: biochemical
Procedure: as §1, §2, §3, §4

EGFR = EGFR (Homo sapiens (Human), UniProt P00533); assay: Kinase inhibition, Mobility Shift Assay (EGFR); type: biochemical
Procedure: as §1, §2, §3, §4

FLT4 (VEGFR3) = FLT4 (VEGFR3) (Homo sapiens (Human), UniProt P35916); assay: Kinase inhibition, Mobility Shift Assay (VEGFR3); type: biochemical
Procedure: as §1, §2, §3, §4

FLT4 (VEGFR3), sequence (P35916 25-1363): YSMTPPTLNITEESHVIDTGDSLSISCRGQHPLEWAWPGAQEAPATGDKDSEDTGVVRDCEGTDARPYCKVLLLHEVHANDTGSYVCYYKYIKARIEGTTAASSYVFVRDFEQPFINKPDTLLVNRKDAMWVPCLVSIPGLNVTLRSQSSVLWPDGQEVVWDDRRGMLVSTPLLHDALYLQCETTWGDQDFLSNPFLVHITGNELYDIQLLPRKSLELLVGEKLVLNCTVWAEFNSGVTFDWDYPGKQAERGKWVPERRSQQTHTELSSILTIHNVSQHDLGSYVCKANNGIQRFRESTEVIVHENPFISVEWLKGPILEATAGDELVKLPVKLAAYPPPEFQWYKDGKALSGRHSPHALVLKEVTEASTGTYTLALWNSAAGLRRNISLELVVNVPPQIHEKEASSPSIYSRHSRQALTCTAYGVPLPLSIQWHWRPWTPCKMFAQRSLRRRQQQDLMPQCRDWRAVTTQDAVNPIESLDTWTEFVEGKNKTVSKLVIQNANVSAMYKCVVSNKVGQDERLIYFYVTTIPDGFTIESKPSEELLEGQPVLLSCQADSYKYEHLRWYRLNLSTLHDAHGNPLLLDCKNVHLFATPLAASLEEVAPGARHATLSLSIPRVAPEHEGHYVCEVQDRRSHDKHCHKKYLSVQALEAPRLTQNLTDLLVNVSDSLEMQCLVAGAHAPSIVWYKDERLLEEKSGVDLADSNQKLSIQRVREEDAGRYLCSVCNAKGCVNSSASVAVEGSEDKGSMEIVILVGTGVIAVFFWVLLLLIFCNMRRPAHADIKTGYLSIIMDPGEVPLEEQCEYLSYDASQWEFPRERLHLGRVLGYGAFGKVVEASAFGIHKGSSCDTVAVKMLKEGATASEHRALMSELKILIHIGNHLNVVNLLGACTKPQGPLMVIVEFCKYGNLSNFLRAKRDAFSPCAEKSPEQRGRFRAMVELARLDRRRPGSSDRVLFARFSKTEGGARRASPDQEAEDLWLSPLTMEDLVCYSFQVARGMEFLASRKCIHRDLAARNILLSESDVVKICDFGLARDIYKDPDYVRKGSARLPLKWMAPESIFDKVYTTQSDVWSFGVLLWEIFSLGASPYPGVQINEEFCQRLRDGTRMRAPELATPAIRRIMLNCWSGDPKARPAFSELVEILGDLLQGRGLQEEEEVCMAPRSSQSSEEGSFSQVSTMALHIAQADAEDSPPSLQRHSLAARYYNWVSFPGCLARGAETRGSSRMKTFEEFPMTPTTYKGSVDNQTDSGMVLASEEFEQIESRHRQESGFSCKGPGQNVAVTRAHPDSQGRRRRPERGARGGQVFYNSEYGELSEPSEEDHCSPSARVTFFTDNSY
KDR (VEGFR2), sequence (P35968 790-1356): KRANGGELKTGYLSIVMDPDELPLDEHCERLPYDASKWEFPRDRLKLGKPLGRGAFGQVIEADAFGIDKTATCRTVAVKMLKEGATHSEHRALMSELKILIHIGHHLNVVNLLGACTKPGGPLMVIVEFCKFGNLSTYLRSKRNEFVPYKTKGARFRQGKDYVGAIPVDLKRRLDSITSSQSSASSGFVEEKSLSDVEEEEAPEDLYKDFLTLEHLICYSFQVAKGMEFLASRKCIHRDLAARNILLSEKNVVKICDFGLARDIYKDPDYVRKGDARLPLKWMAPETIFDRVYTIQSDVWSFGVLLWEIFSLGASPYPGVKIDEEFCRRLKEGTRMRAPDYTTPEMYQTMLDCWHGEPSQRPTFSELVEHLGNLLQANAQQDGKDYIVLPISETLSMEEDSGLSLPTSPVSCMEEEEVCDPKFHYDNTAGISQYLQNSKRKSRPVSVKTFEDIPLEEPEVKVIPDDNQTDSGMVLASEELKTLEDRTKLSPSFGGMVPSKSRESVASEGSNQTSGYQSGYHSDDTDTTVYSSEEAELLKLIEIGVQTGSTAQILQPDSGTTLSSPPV
EGFR, sequence (P00533 25-1210): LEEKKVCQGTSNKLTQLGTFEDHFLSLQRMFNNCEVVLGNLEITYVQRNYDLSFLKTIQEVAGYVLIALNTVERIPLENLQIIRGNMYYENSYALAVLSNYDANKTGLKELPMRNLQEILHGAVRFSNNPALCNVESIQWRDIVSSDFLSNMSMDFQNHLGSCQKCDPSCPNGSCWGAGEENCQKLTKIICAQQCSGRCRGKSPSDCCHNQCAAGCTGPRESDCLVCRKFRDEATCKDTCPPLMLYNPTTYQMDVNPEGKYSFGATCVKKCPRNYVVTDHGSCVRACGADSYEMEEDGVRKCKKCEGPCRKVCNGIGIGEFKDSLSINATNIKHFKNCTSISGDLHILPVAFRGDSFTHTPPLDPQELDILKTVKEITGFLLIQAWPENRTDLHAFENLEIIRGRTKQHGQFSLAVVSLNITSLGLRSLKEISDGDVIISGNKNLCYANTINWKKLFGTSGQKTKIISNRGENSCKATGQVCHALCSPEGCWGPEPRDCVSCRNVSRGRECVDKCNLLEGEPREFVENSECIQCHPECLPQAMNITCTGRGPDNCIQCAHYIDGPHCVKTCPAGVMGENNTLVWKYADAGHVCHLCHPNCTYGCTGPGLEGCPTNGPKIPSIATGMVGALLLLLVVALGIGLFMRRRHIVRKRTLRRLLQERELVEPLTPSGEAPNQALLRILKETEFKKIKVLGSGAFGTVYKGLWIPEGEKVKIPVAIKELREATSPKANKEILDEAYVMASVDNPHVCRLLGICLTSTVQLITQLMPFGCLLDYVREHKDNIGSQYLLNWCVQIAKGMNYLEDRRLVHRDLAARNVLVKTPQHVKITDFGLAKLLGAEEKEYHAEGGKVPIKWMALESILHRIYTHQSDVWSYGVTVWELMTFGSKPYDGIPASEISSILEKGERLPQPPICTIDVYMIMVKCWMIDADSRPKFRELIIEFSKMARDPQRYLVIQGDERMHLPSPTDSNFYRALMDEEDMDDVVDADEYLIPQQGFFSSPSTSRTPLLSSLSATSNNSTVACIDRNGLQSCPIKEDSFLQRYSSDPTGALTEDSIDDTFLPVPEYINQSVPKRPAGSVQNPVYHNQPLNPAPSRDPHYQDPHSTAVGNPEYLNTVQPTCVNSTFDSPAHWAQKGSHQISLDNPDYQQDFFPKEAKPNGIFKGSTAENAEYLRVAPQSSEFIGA
FLT1 (VEGFR1), sequence (P17948 27-1338): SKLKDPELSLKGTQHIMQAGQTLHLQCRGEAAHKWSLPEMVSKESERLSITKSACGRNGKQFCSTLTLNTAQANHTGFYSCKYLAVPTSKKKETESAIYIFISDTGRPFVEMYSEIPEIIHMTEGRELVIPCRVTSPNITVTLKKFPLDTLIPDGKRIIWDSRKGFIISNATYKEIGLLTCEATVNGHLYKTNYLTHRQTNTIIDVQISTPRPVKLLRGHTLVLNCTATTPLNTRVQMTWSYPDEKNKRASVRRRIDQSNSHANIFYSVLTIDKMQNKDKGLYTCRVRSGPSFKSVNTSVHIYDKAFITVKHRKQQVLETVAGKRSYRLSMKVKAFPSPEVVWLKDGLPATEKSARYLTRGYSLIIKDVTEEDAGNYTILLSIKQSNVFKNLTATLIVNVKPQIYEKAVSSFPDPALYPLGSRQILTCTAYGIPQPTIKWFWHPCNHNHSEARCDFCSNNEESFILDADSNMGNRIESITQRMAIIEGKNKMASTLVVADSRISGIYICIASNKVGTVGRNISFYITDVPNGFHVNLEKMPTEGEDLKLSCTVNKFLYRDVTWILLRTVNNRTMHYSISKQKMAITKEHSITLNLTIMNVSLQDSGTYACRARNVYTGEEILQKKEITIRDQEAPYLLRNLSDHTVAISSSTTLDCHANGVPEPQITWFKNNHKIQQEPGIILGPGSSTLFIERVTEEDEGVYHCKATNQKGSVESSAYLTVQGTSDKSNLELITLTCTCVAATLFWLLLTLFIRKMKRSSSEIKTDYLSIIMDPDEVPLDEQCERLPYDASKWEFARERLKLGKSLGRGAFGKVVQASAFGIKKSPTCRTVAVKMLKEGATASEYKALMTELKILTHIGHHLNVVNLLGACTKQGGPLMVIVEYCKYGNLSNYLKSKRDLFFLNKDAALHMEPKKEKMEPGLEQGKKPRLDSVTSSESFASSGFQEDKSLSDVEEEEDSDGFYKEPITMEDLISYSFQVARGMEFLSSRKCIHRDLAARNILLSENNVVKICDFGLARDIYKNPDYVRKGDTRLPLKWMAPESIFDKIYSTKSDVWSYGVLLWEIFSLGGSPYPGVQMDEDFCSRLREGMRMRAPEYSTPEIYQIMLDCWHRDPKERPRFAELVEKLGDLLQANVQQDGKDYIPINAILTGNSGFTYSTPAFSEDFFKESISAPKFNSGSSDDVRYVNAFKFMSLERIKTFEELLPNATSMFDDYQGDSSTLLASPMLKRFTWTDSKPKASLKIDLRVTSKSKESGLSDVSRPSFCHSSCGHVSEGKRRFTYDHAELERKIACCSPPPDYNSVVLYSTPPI

Structure (SMILES): CNC(=O)c1ccccc1Sc1ccc2c(/C=C/c3ccc(OCC4CCCN4C)cn3)n[nH]c2c1 (stereo not drawn) [Compound I-2, N-methyl-2-({3-[(E)-2-{5-[(1-methylpyrrolidin-2-yl)methoxy]pyridin-2-yl}vinyl]-1H-indazol-6-yl}thio)benzamide]
- fraction unbound at 2 h, 2 μM (melanin): 0.01 to 0.05
- IC50 (KDR (VEGFR2)): ≤ 1 nM
- IC50 (FLT1 (VEGFR1)): ≤ 1 nM

Structure (SMILES): CNC(=O)c1ccccc1Sc1ccc2c(/C=C/c3ccc(OCC4CCNC4)cn3)n[nH]c2c1 (stereo not drawn) [Compound I-7]
- fraction unbound at 2 h, 2 μM (melanin): > 0.05
- IC50 (FLT1 (VEGFR1)): ≤ 1 nM

Structure (SMILES): CNC(=O)c1ccccc1Sc1ccc2c(/C=C/c3ccc(O)cn3)n[nH]c2c1 [Compound I-10, 2-({3-[(E)-2-(5-hydroxypyridin-2-yl)vinyl]-1H-indazol-6-yl}thio)-N-methylbenzamide]
- IC50 (EGFR): 6000 to 60000 nM
- IC50 (FLT4 (VEGFR3)): ≤ 1 nM
- IC50 (KDR (VEGFR2)): 1 to 10 nM
- IC50 (FLT1 (VEGFR1)): 1 to 10 nM

Structure (SMILES): CNC(=O)c1ccccc1Sc1ccc2c(C#Cc3cccc(OCCN4CCCC4)n3)n[nH]c2c1 [Compound I-24, N-methyl-2-{[3-(2-{6-[2-(pyrrolidin-1-yl)ethoxy]pyridin-2-yl}ethynyl)-1H-indazol-6-yl]thio}benzamide]
- IC50 (EGFR): 6000 to 60000 nM
- IC50 (FLT4 (VEGFR3)): 10 to 100 nM
- IC50 (KDR (VEGFR2)): 10 to 100 nM
- IC50 (FLT1 (VEGFR1)): 10 to 100 nM

Structure (SMILES): CNC(=O)c1ccccc1Sc1ccn2c(/C=C/c3ccccn3)ncc2c1 [Compound I-27, N-methyl-2-({3-[(E)-2-(pyridin-2-yl)vinyl]imidazo[1,5-a]pyridin-7-yl}thio)benzamide]
- IC50 (EGFR): 6000 to 60000 nM
- IC50 (FLT4 (VEGFR3)): > 100 nM
- IC50 (KDR (VEGFR2)): > 100 nM
- IC50 (FLT1 (VEGFR1)): > 100 nM

Structure (SMILES): CNC(=O)c1ccccc1Sc1ccc2c(/C=C/c3ccc(OC[C@H]4CCN(C)C4)cn3)n[nH]c2c1 [Compound I-37, N-methyl-2-({3-[(E)-2-(5-{[(3S)-1-methylpyrrolidin-3-yl]methoxy}pyridin-2-yl)vinyl]-1H-indazol-6-yl}thio)benzamide]
- fraction unbound at 2 h, 2 μM (melanin): 0.01 to 0.05
- IC50 (KDR (VEGFR2)): ≤ 1 nM
- IC50 (FLT1 (VEGFR1)): ≤ 1 nM

Structure (SMILES): O=C(NC1CC1)c1cccc(F)c1Sc1ccc2c(/C=C/c3cnn(CCCN4CCCC4)c3)n[nH]c2c1 [Compound I-44, N-cyclopropyl-3-fluoro-2-({3-[(E)-2-{1-[3-(pyrrolidin-1-yl)propyl]-1H-pyrazol-4-yl}vinyl]-1H-indazol-6-yl}thio)benzamide]
- fraction unbound at 2 h, 2 μM (melanin): 0.01 to 0.05

Structure (SMILES): CN(C)CCOc1ccc(/C=C/c2n[nH]c3cc(Sc4ccccc4C(=O)NC4CC4)ccc23)nc1 [Compound I-51, N-cyclopropyl-2-({3-[(E)-2-{5-[2-(dimethylamino)ethoxy]pyridin-2-yl}vinyl]-1H-indazol-6-yl}thio)benzamide]
- fraction unbound at 2 h, 2 μM (melanin): 0.01 to 0.05

Structure (SMILES): CCN(C)CCOc1ccc(/C=C/c2n[nH]c3cc(Sc4ccccc4C(=O)NC4CC4)ccc23)nc1 [Compound I-52, N-cyclopropyl-2-({3-[(E)-2-{5-[2-(diethylamino)ethoxy]pyridin-2-yl}vinyl]-1H-indazol-6-yl}thio)benzoyl]
- fraction unbound at 2 h, 2 μM (melanin): > 0.05

Structure (SMILES): O=C(NC1CC1)c1ccccc1Sc1ccc2c(/C=C/c3ccc(OCCN4CCCCC4)cn3)n[nH]c2c1 [Compound I-53, N-cyclopropyl-2-({3-[(E)-2-{5-[2-(piperidin-1-yl)ethoxy]pyridin-2-yl}vinyl]-1H-indazol-6-yl}thio)benzamide]
- fraction unbound at 2 h, 2 μM (melanin): > 0.05

Structure (SMILES): CCNC(=O)c1ccccc1Sc1ccc2c(/C=C/c3ccc(CN4CCCC4)cn3)n[nH]c2c1 [Compound I-73, N-ethyl-2-({3-[(E)-2-{5-[(pyrrolidin-1-yl)methyl]pyridin-2-yl}vinyl]-1H-indazol-6-yl}thio)benzamide]
- fraction unbound at 2 h, 2 μM (melanin): 0.01 to 0.05
- IC50 (EGFR): 6000 to 60000 nM
- IC50 (KDR (VEGFR2)): 1 to 10 nM

Structure (SMILES): CNC(=O)c1cccc(F)c1Sc1ccc2c(/C=C/c3cnn(CCCN4CCCC4)c3)n[nH]c2c1 [Compound I-76, 3-fluoro-N-methyl-2-({3-[(E)-2-{1-[3-(pyrrolidin-1-yl)propyl]-1H-pyrazol-4-yl}vinyl]-1H-indazol-6-yl}thio)benzamide]
- fraction unbound at 2 h, 2 μM (melanin): > 0.05
- IC50 (EGFR): 600 to 6000 nM
- IC50 (KDR (VEGFR2)): 1 to 10 nM

Structure (SMILES): O=C(NC1CC1)c1ccc(F)cc1Sc1ccc2c(/C=C/c3ccc(CN4CCCC4)cn3)n[nH]c2c1 [Compound I-79, N-cyclopropyl-4-fluoro-2-({3-[(E)-2-{5-[(pyrrolidin-1-yl)methyl]pyridin-2-yl}vinyl]-1H-indazol-6-yl}thio)benzamide]
- fraction unbound at 2 h, 2 μM (melanin): > 0.05
- IC50 (EGFR): 6000 to 60000 nM
- IC50 (KDR (VEGFR2)): ≤ 1 nM

Structure (SMILES): O=C(NC1CC1)c1ccccc1Nc1ccc2c(/C=C/c3ccc(CN4CCCC4)cn3)n[nH]c2c1 [Compound I-82, N-cyclopropyl-2-({3-[(E)-2-{5-[(pyrrolidin-1-yl)methyl]pyridin-2-yl}vinyl]-1H-indazol-6-yl}amino)benzamide]
- fraction unbound at 2 h, 2 μM (melanin): 0.01 to 0.05
- IC50 (EGFR): 6000 to 60000 nM
- IC50 (KDR (VEGFR2)): ≤ 1 nM

Structure (SMILES): CCN(CC)Cc1ccc(/C=C/c2n[nH]c3cc(Sc4c(F)cccc4C(=O)NC)ccc23)nc1 [Compound I-91, 2-({3-[(E)-2-{5-[(diethylamino)methyl]pyridin-2-yl}vinyl]-1H-indazol-6-yl}thio)-3-fluoro-N-methylbenzamide]
- fraction unbound at 2 h, 2 μM (melanin): 0.01 to 0.05
- IC50 (EGFR): 6000 to 60000 nM
- IC50 (KDR (VEGFR2)): 1 to 10 nM

Structure (SMILES): CCN(CC)Cc1ccc(/C=C/c2n[nH]c3cc(Sc4ccc(F)cc4C(=O)NC)ccc23)nc1 [Compound I-93, 2-({3-[(E)-2-{5-[(diethylamino)methyl]pyridin-2-yl}vinyl]-1H-indazol-6-yl}thio)-5-fluoro-N-methylbenzamide]
- fraction unbound at 2 h, 2 μM (melanin): 0.01 to 0.05
- IC50 (EGFR): 6000 to 60000 nM
- IC50 (KDR (VEGFR2)): 1 to 10 nM

Structure (SMILES): CNC(=O)c1ccc(F)cc1Sc1ccc2c(/C=C/c3ccc(CN4CCCC4)cn3)n[nH]c2c1 [Compound I-94, 4-fluoro-N-methyl-2-({3-[(E)-2-{5-[(pyrrolidin-1-yl)methyl]pyridin-2-yl}vinyl]-1H-indazol-6-yl}thio)benzamide]
- fraction unbound at 2 h, 2 μM (melanin): 0.01 to 0.05
- IC50 (EGFR): 6000 to 60000 nM
- IC50 (KDR (VEGFR2)): 1 to 10 nM

Structure (SMILES): CCN(CC)Cc1ccc(/C=C/c2n[nH]c3cc(Sc4ccccc4C(=O)NCCF)ccc23)nc1 [Compound I-98, 2-({3-[(E)-2-{5-(diethylamino)methyl]pyridin-2-ylvinyl]-1H-indazol-6-yl}thio)-N-(2-fluoroethyl)benzamide]
- fraction unbound at 2 h, 2 μM (melanin): > 0.05
- IC50 (EGFR): 6000 to 60000 nM
- IC50 (KDR (VEGFR2)): 1 to 10 nM

Structure (SMILES): CCN(CC)Cc1ccc(/C=C/c2n[nH]c3cc(Sc4ccccc4C(=O)NCC(F)F)ccc23)nc1 [Compound I-99, 2-({3-[(E)-2-{5-[(diethylamino)methyl]pyridin-2-yl}vinyl]-1H-indazol-6-yl}thio)-N-(2,2-difluoroethyl)benzamide]
- fraction unbound at 2 h, 2 μM (melanin): > 0.05
- IC50 (EGFR): 6000 to 60000 nM
- IC50 (KDR (VEGFR2)): 1 to 10 nM

Structure (SMILES): O=C(NC1CC1)c1cc(F)ccc1Sc1ccc2c(/C=C/c3cc(CN4CCCC4)ccn3)n[nH]c2c1 [Compound I-137, N-cyclopropyl-5-fluoro-2-({3-[(E)-2-{4-[(pyrrolidin-1-yl)methyl]pyridin-2-yl}vinyl]-1H-indazol-6-yl}thio)benzamide]
- IC50 (EGFR): > 60000 nM
- IC50 (KDR (VEGFR2)): 1 to 10 nM

Structure (SMILES): O=C(NC1CC1)c1cc(F)ccc1Sc1ccc2c(/C=C/c3cccc(CN4CCCC4)n3)n[nH]c2c1 [Compound I-138, N-cyclopropyl-5-fluoro-2-({3-[(E)-2-{6-[(pyrrolidin-1-yl)methyl]pyridin-2-yl}vinyl]-1H-indazol-6-yl}thio)benzamide]
- IC50 (EGFR): > 60000 nM
- IC50 (KDR (VEGFR2)): 1 to 10 nM

Structure (SMILES): O=C(NC1CC1)c1ccccc1Sc1ccc2c(C#Cc3ccc(OCCN4CCCC4)cn3)n[nH]c2c1 [Compound I-139, N-cyclopropyl-2-{[3-(2-{5-[2-(pyrrolidin-1-yl)ethoxy]pyridin-2-yl}ethynyl)-1H-indazol-6-yl]thio}benzamide]
- IC50 (EGFR): > 60000 nM
- IC50 (KDR (VEGFR2)): 10 to 100 nM
